# Test results: patent US12534706B2, “Method for maturation of retinal tissue containing continuous epithelium” (RIKEN, priority 2017, dated 2026)
# Columns and labels:
# [1] = tested on: cell aggregate containing a retinal tissue (CRX::Venus knock-in human ES cells); experiment: Continuous epithelium rate of retinal tissue after adding a substance to the medium of culture method [B] (day 38 to 56); type: cell-based; conditions: day 38 to day 54, 55 or 56
# Experimental: A cell aggregate containing a retinal tissue was prepared by the method described in “Kuwahara et al. Nat Commun 2015, 19(6), 6286” after modification in part. That is, the aforementioned cultured ES cells were individually dispersed using TrypLE Express (Invitrogen), and the individually dispersed human ES cells were suspended in 100 μL of a serum-free medium in a cell non-adhesive 96 well culture plate (SUMILON spheroid plate, SUMITOMO BAKELITE CO., LTD.) at 9×10^3 cells per well to allow rapid formation of aggregates, after which they were cultured at 37° C., 5% CO2. As the serum-free medium therefor, a serum-free medium obtained by adding 10% KSR, 450 μM 1-monothioglycerol, 1× Chemically defined lipid concentrate, 5 mg/mL BSA, 20 μM Y27632 to a 1:1 mixture of F-12 medium and IMDM medium was used. At 6 days after the start of suspension culture, BMP4 at a final concentration of 1.5 nM was added and suspension culture was continued. A half amount of the culture medium in the well was exchanged with the above-mentioned medium not supplemented with a BMP signal transduction pathway agonist every 3 or 4 days. A cell aggregate containing a retinal tissue at day 18 from the start of suspension culture was cultured in suspension in a serum-free medium containing 3 μM CHIR99021 and 5 μM SU5402 (DMEM/F12 medium supplemented with 1% N2 supplement) for 4 days, namely, until day 22 from the start of suspension culture. Thereafter, suspension culture was continued using the serum-containing medium. The serum-containing medium used then and the culture method are shown in the following [A] to [C]. The suspension culture of the cell aggregate containing the retinal tissue was continued until it was appropriately used for analysis and the like. • [A] From day 22 to day 56 from the start of suspension culture, suspension culture was performed using a medium obtained by adding 10% bovine calf serum, 1% N2 supplement, and 100 μM taurine to the DMEM/F12 medium. • [B] From day 22 to day 38 from the start of suspension culture, suspension culture was performed using a medium obtained by adding 10% bovine calf serum, 1% N2 supplement, and 100 μM taurine to the DMEM/F12 medium; and from day 38 to day 56 from the start of suspension culture, suspension culture was performed using a 1:3 mixed medium of a medium obtained by adding 10% bovine calf serum, 1% N2 supplement, and 100 μM taurine to the DMEM/F12 medium and a medium obtained by adding 10% bovine calf serum, 2% B27 supplement, and 100 μM taurine to the Neurobasal medium. • [C] From day 22 to day 56 from the start of suspension culture, suspension culture was performed using a medium obtained by adding 10% bovine calf serum, 2% B27 supplement, and 100 μM taurine to the Neurobasal medium (manufactured by Thermo Scientific, 21103049).
# Thus, among the substances contained in the medium used in the culture method [B] from day 38 to day 56 from the start of suspension culture in the culturing method [B], a substance that may greatly affect cell differentiation, cell protection, and cell death of retinal tissues was added to the medium used in the culture method [A], and whether it contributes to the improvement of continuous epithelium rate was studied. […]
# [2] = tested on: cell aggregate containing a retinal tissue (CRX::Venus knock-in human ES cells); experiment: Continuous epithelium rate of retinal tissue after adding a substance to the medium of culture method [A]; type: cell-based; conditions: day 38 to day 54, 55 or 56
# Experimental: A cell aggregate containing a retinal tissue was prepared by the method described in “Kuwahara et al. Nat Commun 2015, 19(6), 6286” after modification in part. That is, the aforementioned cultured ES cells were individually dispersed using TrypLE Express (Invitrogen), and the individually dispersed human ES cells were suspended in 100 μL of a serum-free medium in a cell non-adhesive 96 well culture plate (SUMILON spheroid plate, SUMITOMO BAKELITE CO., LTD.) at 9×10^3 cells per well to allow rapid formation of aggregates, after which they were cultured at 37° C., 5% CO2. As the serum-free medium therefor, a serum-free medium obtained by adding 10% KSR, 450 μM 1-monothioglycerol, 1× Chemically defined lipid concentrate, 5 mg/mL BSA, 20 μM Y27632 to a 1:1 mixture of F-12 medium and IMDM medium was used. At 6 days after the start of suspension culture, BMP4 at a final concentration of 1.5 nM was added and suspension culture was continued. A half amount of the culture medium in the well was exchanged with the above-mentioned medium not supplemented with a BMP signal transduction pathway agonist every 3 or 4 days. A cell aggregate containing a retinal tissue at day 18 from the start of suspension culture was cultured in suspension in a serum-free medium containing 3 μM CHIR99021 and 5 μM SU5402 (DMEM/F12 medium supplemented with 1% N2 supplement) for 4 days, namely, until day 22 from the start of suspension culture. Thereafter, suspension culture was continued using the serum-containing medium. The serum-containing medium used then and the culture method are shown in the following [A] to [C]. The suspension culture of the cell aggregate containing the retinal tissue was continued until it was appropriately used for analysis and the like. • [A] From day 22 to day 56 from the start of suspension culture, suspension culture was performed using a medium obtained by adding 10% bovine calf serum, 1% N2 supplement, and 100 μM taurine to the DMEM/F12 medium. • [B] From day 22 to day 38 from the start of suspension culture, suspension culture was performed using a medium obtained by adding 10% bovine calf serum, 1% N2 supplement, and 100 μM taurine to the DMEM/F12 medium; and from day 38 to day 56 from the start of suspension culture, suspension culture was performed using a 1:3 mixed medium of a medium obtained by adding 10% bovine calf serum, 1% N2 supplement, and 100 μM taurine to the DMEM/F12 medium and a medium obtained by adding 10% bovine calf serum, 2% B27 supplement, and 100 μM taurine to the Neurobasal medium. • [C] […]
molecule,measurement,setting,value
N[C@@H](CC(=O)O)C(=O)O [L-aspartic acid],continuous epithelium rate,"[1]; L-aspartic acid alone, final concentration 50 μM in culture method [B] medium","decreased the continuous epithelium rate slightly, but the difference was not significant"
N[C@@H](CCC(=O)O)C(=O)O [L-glutamic acid],continuous epithelium rate,"[1]; L-glutamic acid alone, final concentration 50 μM in culture method [B] medium",contributed to the decrease
"C[C@]12C[C@H](O)[C@H]3[C@@H](CCC4=CC(=O)CC[C@@]43C)[C@@H]1CC[C@@H]2C(=O)CO [corticosterone, reference compound]",continuous epithelium rate,"[2]; final concentration 100 nM added to culture method [A] medium, vs nothing added (corticosterone)",increased
N[C@@H](CS)C(=O)O [cysteine],continuous epithelium rate,"[2]; final concentration 0.22 mM in culture method [A] medium, vs nothing added",decreased
O=c1[nH]cnc2nc[nH]c12 [hypoxanthine],continuous epithelium rate,[1]; final concentration 15 μM in culture method [B] medium,contributed to a decrease
CSCC[C@H](N)C(=O)O [methionine],continuous epithelium rate,"[2]; final concentration 26.81 mg/L in culture method [A] medium, vs nothing added",increased
"CC(=O)[C@H]1CC[C@H]2[C@@H]3CCC4=CC(=O)CC[C@]4(C)[C@H]3CC[C@]12C [progesterone, reference compound]",continuous epithelium rate,"[2]; final concentration 100 nM added to culture method [A] medium, vs nothing added (progesterone)",similarly decreased
Cc1cn([C@H]2C[C@H](O)[C@@H](CO)O2)c(=O)[nH]c1=O [thymidine],continuous epithelium rate,[1]; final concentration 1.5 μM in culture method [B] medium,contributed to a decrease
vitamin B12,continuous epithelium rate,[1]; final concentration 0.68 mg/L in culture method [B] medium,contributed to a decrease
